Among the data in patent US20120028967A1 (priority 2009, published 2012) are IC50 values, retold here.

Structures are written as SMILES. Structures can show the parent of a compound that is named as a salt.

Sequence of α7-subtype of nicotinic receptors (Q05941 23-502): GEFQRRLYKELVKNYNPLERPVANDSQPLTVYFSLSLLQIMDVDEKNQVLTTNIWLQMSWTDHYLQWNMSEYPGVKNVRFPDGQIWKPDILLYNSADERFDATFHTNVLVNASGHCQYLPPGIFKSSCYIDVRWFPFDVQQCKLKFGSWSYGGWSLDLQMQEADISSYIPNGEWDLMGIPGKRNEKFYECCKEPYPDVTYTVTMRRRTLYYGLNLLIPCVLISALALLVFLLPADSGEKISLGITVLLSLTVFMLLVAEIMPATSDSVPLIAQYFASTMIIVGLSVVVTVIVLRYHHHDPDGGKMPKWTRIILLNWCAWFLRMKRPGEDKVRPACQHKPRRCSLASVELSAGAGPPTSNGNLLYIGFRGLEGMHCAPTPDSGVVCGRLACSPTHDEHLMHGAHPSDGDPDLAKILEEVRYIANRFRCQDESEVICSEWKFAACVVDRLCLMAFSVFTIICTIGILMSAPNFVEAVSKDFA

The assay addresses α7-subtype of nicotinic receptors (Rattus norvegicus, UniProt Q05941). The assay is described as follows: biochemical. The assay is classed as binding.
With `Brc1cnc(N2CCN3CCC2CC3)nc1` [Compound 1, 4-(5-Bromo-pyrimidin-2-yl)-1,4-diaza-bicyclo[3.2.2]nonane fumaric acid salt], it took 280 nM to reach half-maximal inhibition (IC50).
On to `Ic1cnc(N2CCN3CCC2CC3)nc1` [Compound 2, 4-(5-Iodopyrimidin-2-yl)-1,4-diazabicyclo[3.2.2]nonane fumaric acid salt], for which the IC50 turned out to be 38 nM. Compared with the last molecule, the IC50 is about 7.4-fold lower.
As for `Clc1cnc(N2CCN3CCC2CC3)nc1` [Compound 3, 4-(5-Chloropyrimidin-2-yl)-1,4-diazabicyclo[3.2.2]nonane fumaric acid salt], the concentration for half-maximal inhibition (IC50) is 190 nM. This IC50 lies about 5-fold higher than the previous one.
